Measurements from PubChem BioAssay (NCI).
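Interpolation was linear, between the two tested concentrations surrounding the appropriate level; five concentrations were tested over 48 hours in 96-well plates. TGI denotes the concentration required for complete inhibition of growth.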

Columns and labels:
Assay in all cases: NCI tumour cell line growth inhibition, 48 h
[1] = test system: 786-0 renal
[2] = test system: A498 renal
[3] = test system: A549 NSCLC
[4] = test system: ACHN renal
[5] = test system: CAKI-1 renal
[6] = test system: CCRF-CEM leukemia
[7] = test system: COLO 205 colon
[8] = test system: DLD-1 colon
[9] = test system: DMS 114 small cell lung
[10] = test system: DMS 273 small cell lung
[11] = test system: EKVX NSCLC
[12] = test system: HCC-2998 colon
[13] = test system: HCT-116 colon
[14] = test system: HCT-15 colon
[15] = test system: HL-60(TB) leukemia
[16] = test system: HOP-18 NSCLC
[17] = test system: HOP-62 NSCLC
[18] = test system: HOP-92 NSCLC
[19] = test system: HT29 colon
[20] = test system: IGROV1 ovarian
[21] = test system: K-562 leukemia
[22] = test system: KM12 colon
[23] = test system: KM20L2 colon
[24] = test system: LOX IMVI melanoma
[25] = test system: LXFL 529 NSCLC
[26] = test system: M14 melanoma
[27] = test system: M19-MEL melanoma
[28] = test system: MALME-3M melanoma
[29] = test system: MCF7 breast
[30] = test system: MOLT-4 leukemia
[31] = test system: NCI-H226 lung
[32] = test system: NCI-H23 lung
[33] = test system: NCI-H460 lung
[34] = test system: NCI-H522 lung
[35] = test system: NCI/ADR-RES ovarian
[36] = test system: OVCAR-3 ovarian
[37] = test system: OVCAR-4 ovarian
[38] = test system: OVCAR-5 ovarian
[39] = test system: OVCAR-8 ovarian
[40] = test system: P388 leukemia
[41] = test system: P388/ADR leukemia
[42] = test system: RPMI-8226 leukemia
[43] = test system: RXF 393 renal
[44] = test system: SF-268 CNS
[45] = test system: SF-295 CNS
[46] = test system: SF-539 CNS
[47] = test system: SK-MEL-2 melanoma
[48] = test system: SK-MEL-28 melanoma
[49] = test system: SK-MEL-5 melanoma
[50] = test system: SK-OV-3 ovarian
[51] = test system: SN12C renal
[52] = test system: SN12K1 renal
[53] = test system: SNB-19 CNS
[54] = test system: SNB-75 CNS
[55] = test system: SNB-78 CNS
[56] = test system: SR leukemia
[57] = test system: SW-620 colon
[58] = test system: U251 CNS
[59] = test system: UACC-257 melanoma
[60] = test system: UACC-62 melanoma
[61] = test system: UO-31 renal

CNC(=O)OCc1nc(SC(C)C)n(C)c1COC(=O)NC
TGI [1]: > 100 µM | TGI [2]: > 100 µM | TGI [3]: > 100 µM | TGI [4]: > 100 µM | TGI [5]: > 100 µM | TGI [6]: > 88 µM | TGI [7]: > 100 µM | TGI [8]: > 100 µM | TGI [9]: > 100 µM | TGI [10]: > 100 µM | TGI [11]: > 100 µM | TGI [12]: > 100 µM | TGI [13]: > 100 µM | TGI [14]: > 100 µM | TGI [15]: > 100 µM | TGI [16]: > 100 µM | TGI [17]: > 100 µM | TGI [18]: > 100 µM | TGI [19]: > 100 µM | TGI [20]: > 100 µM | TGI [21]: > 100 µM | TGI [22]: > 100 µM | TGI [23]: > 100 µM | TGI [24]: > 100 µM | TGI [25]: > 100 µM | TGI [26]: > 100 µM | TGI [27]: > 100 µM | TGI [28]: > 100 µM | TGI [29]: > 100 µM | TGI [30]: > 86.6 µM | TGI [31]: > 100 µM | TGI [32]: > 100 µM | TGI [33]: > 100 µM | TGI [34]: > 100 µM | TGI [35]: > 100 µM | TGI [36]: > 100 µM | TGI [37]: > 100 µM | TGI [38]: > 100 µM | TGI [39]: > 100 µM | TGI [40]: > 100 µM | TGI [41]: > 100 µM | TGI [42]: > 100 µM | TGI [43]: > 100 µM | TGI [44]: > 100 µM | TGI [45]: > 100 µM | TGI [46]: > 100 µM | TGI [47]: > 100 µM | TGI [48]: > 100 µM | TGI [49]: > 100 µM | TGI [50]: > 100 µM | TGI [51]: > 100 µM | TGI [52]: > 100 µM | TGI [53]: > 100 µM | TGI [54]: > 100 µM | TGI [55]: > 100 µM | TGI [56]: > 100 µM | TGI [57]: > 100 µM | TGI [58]: > 100 µM | TGI [59]: > 100 µM | TGI [60]: > 100 µM | TGI [61]: > 100 µM
